# In US20240317683A1, “METHODS OF TREATING MOOD DISORDERS” (priority 2020, published 2024):
# How the values were obtained:
# [1] = Metabolic stability in human liver microsomes (HLM); type: in vitro ADME; conditions: both sexes, pooled human liver microsomes, pH 7.4, NADPH
# Method: (§1) HLM Stability. Pooled HLM from adult male and female donors (Corning 452117) were used. Microsomal incubations were carried out in multi-well plates. […] Control incubations were performed by replacing the NADPH-cofactor system with PBS. Test compounds (1 μM, final solvent concentration 1.0%) were incubated with microsomes at 37° C. with constant shaking. Six time points over 60 minutes were analyzed, with 60 μL aliquots of the reaction mixture being drawn at each time point.
# [2] = Metabolic stability in mouse liver microsomes (MLM); type: in vitro ADME, CD-1 mice; conditions: CD-1, mouse, pooled mouse liver microsomes, pH 7.4, NADPH
# Method: as §1, with “MLM” for “HLM”, “CD-1 mice (BIOIVT M00501)” for “adult male and female donors (Corning 452117)”
# [3] = Metabolic stability in rat liver microsomes (RLM); type: in vitro ADME; conditions: both sexes, pooled rat liver microsomes, pH 7.4, NADPH
# Method: as §1, with “RLM” for “HLM”, “(Xenotech R1000)” for “(Corning 452117)”
# [4] = system: monoamine oxidase A and B (MAO-A and MAO-B); assay: Stability in the presence of monoamine oxidases (human liver mitochondria); type: in vitro ADME
# Method: Liver Mitochondria Incubations. Human liver mitochondria (Xenotech H0610.M) were used. Mitochondrial incubations were carried out in multi-well plates. […] Six time points over 60 minutes were analyzed.
# 5-HT2A = 5-HT2A (Homo sapiens (Human), UniProt P28223); assay: FLIPR Ca2+ flux agonist assay, 5-HT2A; type: cell-based; conditions: HEK293
# Method: (§2) A solution of 250 mM probenecid in 1 mL FLIPR assay buffer was prepared fresh. This was combined with a fluorescent dye (Fluo-4 Direct™) to make a final assay concentration of 2.5 mM. […] The fluorescent dye was then added to the assay plate along with assay buffer to a final volume of 40 μL. The cell plate was incubated for 50 min at 37° C. and 5% CO2 and placed into the FLIPR Tetra along with the compound plate. 10 μL of references and compounds were then transferred from the compound plate into the cell plate and the fluorescent signal was read.
# 5-HT2B = 5-HT2B (Homo sapiens (Human), UniProt P41595); assay: FLIPR Ca2+ flux agonist assay, 5-HT2B; type: cell-based; conditions: Ca2+ flux, HEK293
# Chain of 5-HT2B (P41595 whole entry, looked up, species assumed): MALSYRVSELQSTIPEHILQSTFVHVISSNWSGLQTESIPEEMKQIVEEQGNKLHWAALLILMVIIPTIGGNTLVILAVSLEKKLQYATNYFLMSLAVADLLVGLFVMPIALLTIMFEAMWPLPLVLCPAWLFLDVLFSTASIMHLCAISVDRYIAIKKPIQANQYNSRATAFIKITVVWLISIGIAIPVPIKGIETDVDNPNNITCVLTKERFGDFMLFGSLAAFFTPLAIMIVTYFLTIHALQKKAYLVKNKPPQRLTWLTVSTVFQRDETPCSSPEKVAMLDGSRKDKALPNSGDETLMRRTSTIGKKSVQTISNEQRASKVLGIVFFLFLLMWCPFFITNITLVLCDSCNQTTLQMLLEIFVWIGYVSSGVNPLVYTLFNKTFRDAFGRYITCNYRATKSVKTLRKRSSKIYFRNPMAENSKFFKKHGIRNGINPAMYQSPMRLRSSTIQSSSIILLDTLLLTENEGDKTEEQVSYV
# Method: as §2
# 5-HT1A = 5-HT1A (Homo sapiens (Human), UniProt P08908); assay: FLIPR Ca2+ flux agonist assay, 5-HT1A; type: cell-based; conditions: Ca2+ flux, CHO cells
# Method: as §2
# [5] = Stability in mouse brain homogenate; type: in vitro ADME, CD-1 mice
# Method: Mouse Brain Homogenate Stability. Frozen mouse brain homogenate (pooled from male CD-1 mice, BioreclamationIVT, MSE00BRAINMZA) was thawed in a water bath at 37° C. immediately prior to use. Positive controls and test compounds (final concentration in incubation medium=1 μM for test compounds and 2 μM for controls, all with 2% DMSO) were incubated in duplicate for each time point (0, 10, 30, 60, and 120 min) in the mouse brain homogenate at a total reaction volume of […] at 37° C. At the end of each incubation period, reactions were immediately quenched with 400 μL of acetonitrile containing internal standard (200 ng/mL tolbutamine and 200 ng/ml labetalol) and mixed thoroughly. Plates were then sealed, shaken for 20 min, and centrifuged at 4,000 rpm and 4° C. for 20 min. Aliquots of 50 μL of each supernatant were diluted into 100 μL of water and the mixtures were then shaken again for 10 min.
# [6] = Stability in rat brain homogenate; type: in vitro ADME, Sprague Dawley rats
# Method: Rat Brain Homogenate Stability. Frozen rat brain homogenate (pooled from male Sprague Dawley rats, BioreclamationIVT, RATOOBRAINMZA) was thawed in a water bath at 37° C. immediately prior to use. Positive controls and test compounds (final concentration in incubation medium=1 μM for test compounds and 2 μM for controls, all with 2% DMSO) were incubated in duplicate for each time point (0, 10, 30, 60, and 120 min) in the rat brain homogenate at a total reaction volume of 100 μL at 37° C. At the end of each incubation period, reactions were immediately quenched with 400 μL of acetonitrile containing internal standard (200 ng/ml tolbutamine and 200 ng/ml labetalol) and mixed thoroughly. Plates were then sealed, shaken for 20 min, and centrifuged at 4,000 rpm and 4° C. for 20 min. Aliquots of 50 μL of each supernatant were diluted into 100 uL of water and the mixtures were then shaken again for 10 min.
# [7] = target: serotonin transporter (SERT) (Homo sapiens (Human), UniProt P31645); assay: SERT fluorescent substrate uptake inhibition in transfected HEK293 cells; type: cell-based; conditions: HEK293 cells expressing SERT
# Method: SERT Uptake Inhibition. The ability of test compounds to block monoamine uptake by SERT was determined using the Neurotransmitter Transporter Uptake Assay Kit manufactured by Molecular Devices (Cat #R8173). Briefly, stably transfected HEK293 cells expressing SERT were grown and plated into 384-well plates at a concentration of 20,000 cells per well. Plates were then incubated for 16-20 h at 37° C. and 5% CO2. The medium was then aspirated and replaced with 25 μL of assay buffer (20 mM HEPES in HBSS, containing 0.1% BSA) containing the test compounds at the appropriate concentrations. Plates were then centrifuged at 300 rpm for 15 s and then incubated at 37° C. for 30 minutes. At this time, 25 μL of the proprietary fluorescent dye solution was added, the plates were incubated at 37°° C. for 60 minutes, and then fluorescence was quantified on a plate reader (excitation wavelength =440 nm, emission wavelength=520 nm). The proprietary dye solution contains a mixture of 1) a fluorescent dye (dye 1) that mimics the endogenous substrate of SERT and is thereby actively transported to the intracellular compartment in the absence of an inhibitor and 2) a masking dye that inhibits the fluorescence of dye 1 in the extracellular compartment. Therefore, the overall fluorescence of the system increases as the fluorescent dye is transported into the cells.
# C57BL/6 mice = assay: Head twitch response (HTR) in mice; type: in vivo
# Method: Animals. Adult male C57BL/6 mice, aged 8 weeks (body weight 20-25 g) were used in these experiments. Animals were housed under controlled temperatures and 12-hour light/dark cycles (lights on between 07:00-19:00 h), with ad libitum food and water. The protocol was approved by the Eurofins Advinus Institutional Animal Care and Use Committee. This study was carried out in strict accordance with the recommendations in the Guide for the Care and Use of Laboratory Animals of the National Institutes of Health. All efforts were made to minimize suffering.
# Drugs and Drug administration. Compounds 3 and 4 were prepared as described above. All other compounds were commercially obtained. Test compounds were used as the hydrogen fumarate (1 and 2) or hydrochloride (DOI, 3, and 4) salts. Drugs were dissolved in a vehicle consisting of normal saline and administered subcutaneously (SC) in a volume of 10 ml/kg. Test compounds were administered at 5 doses per compound (0.1 to 100 mg/kg, as indicated, calculated based on the free base) using N=6 animals/group. […] For blockade experiments, MDL100907 (0.1 mg/kg, SC) was administered 10 mins prior to the test compound.
# Procedure. Mice were administered one dose of a test drug (or vehicle) s.c. and immediately placed into a small open field for behavioral observation. Animals were observed continuously for 20 mins and the number of HTRs were counted by an observer blind to the treatment condition.
# Statistical analysis. The data points shown in Table 11 are the mean ±standard error of the mean (SEM). Analysis was performed using GraphPad Prism 9.
# [8] = human liver mitochondria, pH 7.4, human mitochondrial preparation, 1 μM
smiles,measurement,setting,value
"COc1ccc2[nH]cc(CCN(C)C)c2c1 [Compound 5-MeO-DMT, 5-methoxy-N,N-dimethyltryptamine, reference compound]",half-life at 1 μM,[1],13.6 min
same,half-life at 1 μM,[2],48.8 min
same,microsomal CLint at 1 μM,[2],28.4 µL/min/mg
same,half-life at 1 μM,[3],14 min
same,microsomal CLint at 1 μM,[3],98.8 µL/min/mg
same,MAO stability (in words),[4]; human liver mitochondria preparation,highly metabolized
same,half-life at 1 μM,[4]; [8],52.9 min
same,microsomal CLint at 1 μM,[4]; [8],43.6 µL/min/mg
same,Remaining (t = 60 min),"[4]; human mitochondrial preparation, 1 μM, 60 min",47.1%
same,5-HT2A % Act @ Max Dose,5-HT2A,106%
same,5-HT2B % Act @ Max Dose,5-HT2B,20.5%
same,5-HT1A % Act @ Max Dose,5-HT1A,78.8%
same,stability in mouse brain homogenate (in words),[5],high stability
same,half-life at 1 μM,"[5]; male, CD-1, mouse brain homogenate, 1 μM, 37° C.",> 289 min
same,% Compound Remaining (after 120 min),"[5]; mouse brain homogenate, 1 μM, 37° C.",91.2%
same,stability in rat brain homogenate (in words),[6],highly unstable
same,half-life at 1 μM,"[6]; male, Sprague Dawley, rat brain homogenate, 1 μM, 37° C.",14.4 min
same,% Compound Remaining (after 120 min),"[6]; rat brain homogenate, 1 μM, 37° C.",0.3%
same,IC50,[7],7.02 µM
same,SERT % Inhibition @ Max Dose,[7],68.07%
"COc1cc(CC(C)N)c(OC)cc1I (stereo not shown) [DOI, 4-iodo-2,5-dimethoxyamphetamine, reference compound]",maximal effect in HTR,"C57BL/6 mice; SC, maximal over tested doses",35.6 head twitches/20 min
"COc1cccc([C@H](O)C2CCN(CCc3ccc(F)cc3)CC2)c1OC [MDL100907, reference compound]",blockade of the HTR induced by Compound 4,"C57BL/6 mice; pretreatment 0.1 mg/kg SC, 10 mins prior to Compound 4",completely blocked
